The text below walks through data of article PMC9246869, “Allosteric inhibition of PPM1D serine/threonine phosphatase via an altered conformational state” (Nature Communications, 2022).

Several values for one entry are separate records, joined by “and”; a condition that tells them apart may be missing. Identical values can stand only once.

Series [1] has as its target T1, PPM1D1–420 (Homo sapiens, UniProt O15297).
T1 construct: PPM1D1–420 was PCR-amplified from the synthesized gene with BsaI sites; His(6)-SUMO (N, cleaved yes); made in house; host or cells: E. coli BL21 (DE3)
T1 sequence (O15297 1-420): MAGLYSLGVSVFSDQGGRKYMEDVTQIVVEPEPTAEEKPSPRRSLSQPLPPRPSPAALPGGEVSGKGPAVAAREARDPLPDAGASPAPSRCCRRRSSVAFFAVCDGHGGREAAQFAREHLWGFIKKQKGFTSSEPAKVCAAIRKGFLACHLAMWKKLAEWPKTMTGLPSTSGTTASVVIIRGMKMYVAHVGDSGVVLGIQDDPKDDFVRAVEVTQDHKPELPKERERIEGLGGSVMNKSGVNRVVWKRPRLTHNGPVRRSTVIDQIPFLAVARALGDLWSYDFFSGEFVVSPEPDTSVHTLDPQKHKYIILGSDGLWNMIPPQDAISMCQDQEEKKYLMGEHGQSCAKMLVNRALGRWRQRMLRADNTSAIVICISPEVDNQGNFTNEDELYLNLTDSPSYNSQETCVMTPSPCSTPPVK
As to the kind of experiment: Surface plasmon resonance (SPR). It is filed as binding. How it is done:
SPR was carried out on the Biacore S200 (GE Healthcare) using Series S sensor chip NTA (GE BR-1005-32). The preparation of the chip surface was conducted according to the manufacturer’s indications. The running buffer contained 50 mM Tris (pH 7.5), 50 mM NaCl, 1 mM MgCl2, 0.5 mM TCEP, 0.005% (v/v) P20 surfactant, and 2% DMSO. PPM1D1–420 and PPM1D∆Flap were run under single-cycle mode due to the slow-off-rate kinetics. The two proteins were immobilized on the chip surface in flow cells 2 and 3 with a signal of ~1500–2000 RU at a rate of 5 μL/min while flow cell 1 was left blank as a reference. The running buffer was injected three times followed by the GSK2830371 analyte in solution. Injections were carried out at a flow rate of 50 μL/min with the analyte in a concentration series of 5-point, 3-fold ending at 400 nM top dose. The association and dissociation phases were monitored for 90 s and 600 s, respectively. Collected data were evaluated using the Biacore S200 Evaluation Software under 1:1 binding mode. PPM1D∆Hinge was run under multi-cycle mode due to its fast-on/fast-off kinetics. The protein was immobilized to give a signal of ~ 3000 RU. GSK2830371 analyte in solution was injected at a flow rate of 90 μL/min in a 10-pt, 2-fold concentration series ending at 15 μM top dose. The association and dissociation phases were monitored for 45 s and 150 s, respectively. Since GSK2830371 had issues with solubility/aggregation at high concentrations that caused artifacts in sensorgrams, only steady-state analysis was performed to extract Kd.
(In SPR one partner is held on a chip, and binding of the other changes the refractive index at the surface.)

A short description of another series: Solubility. The series is classed as physicochemical.
Series [2] concerns the target T1, PPM1D1–420. The experiment in a line: p38 MAPK enzymatic assay (LC/MS, dephosphorylation of T180). The series is classed as biochemical. The note with it: PPM1D1–420; full length p38 MAPK substrate, LC/MS. The protocol:
To generate the double phosphorylated form of p38 MAPK for the LC/MS enzymatic PPM1D assay, 20 µM p38 MAPK was incubated with 100 nM MKK6 in 50 mM HEPES pH 7.4, 10 mM ATP, 40 mM MgCl2, and 100 µM TCEP at RT for 2 h. The reaction mixture was diluted 2-fold with 20 mM HEPES pH 7.4, 300 mM NaCl, 100 µM TCEP, and 1 mM MgCl2 and passed over a Superdex 200 26/600 column equilibrated with 20 mM HEPES pH 7.4, 150 mM NaCl, 100 µM TCEP, and 1 mM MgCl2 to remove excess ATP and MKK6 from the phosphorylated p38 MAPK (p38PP) protein. The protein was concentrated and stored in aliquots for single time usage at −80 °C.
The enzymatic activity of the PPM1D constructs was measured by quantifying the dephosphorylation of the substrate protein p38PP by LC/MS. Assays were run in 384-well plates (Axygen; #P-384-120SQ-C) in a final volume of 80 µL per well. The buffer consisted of 20 mM HEPES, 20 mM NaCl, 20 mM MgCl2 and 0.1 mM TCEP, at a pH of 7.5. The reaction was initiated by addition of the p38PP substrate to a solution containing 10 nM PPM1D to a final concentration of 300 nM for p38PP. The plate was then incubated at room temperature and the reaction quenched after 15 min increments with formic acid to a final concentration of 6% (v/v) up to 120 min. For IC50 measurements, the GSK2830371 compound was pre-incubated with the PPM1D constructs in a 2% DMSO-containing buffer for 10 min prior to the addition of the substrate and the reactions were quenched after 2 h. In both experiments, BSA was added to a final concentration of 0.2 µM during the quench step as a carrier protein and injection control for the LC/MS. The plate was then sealed and spun down at 1500 × g for 1 min prior to LC/MS analysis. Plates were analyzed within the same day of the quench step.
Substrate and product detection was achieved by multiple-reaction monitoring (MRM) using a Waters Acquity UPLC chromatography system connected to an Xevo TQ-XS mass spectrometer (Waters, Milford, MA). Source parameters were set as follows: polarity ES+, capillary 2.0 kV, cone voltage, 50 V; collision energy, 5 V; cone gas flow, 200 L/h; collision gas flow, 0.16 mL/min; source temperature, 150 °C; desolvation temperature, 500 °C; and desolvation gas flow, 800 L/h. Analytes were separated using an Agilent PLRP-S Reversed-Phase column (5 µm; 2.1 × 50 mm, 300 Å Agilent Technologies, Santa Clara, CA) at 60 °C. Sample storage temperature was set to 15 °C. Mobile phases consisted of 0.1% (v/v) formic acid (Millipore EMSURE) in LC/MS grade water (JTBaker) and 0.1% v/v formic acid in acetonitrile (Honeywell). Initial column conditions were set to […]. Proteins were eluted using a 1.5 min gradient of 5–98% acetonitrile at 0.4 ml/min. MassLynx and TargetLynx software (Waters, version 4.2) were used for sample acquisition and data analysis, respectively. Analytes were quantified by integration of peak areas under the curve using the transitions 941.10 to 941.05 m/z for P38PP (substrate) and 939.10 to 939.09 m/z for P38P (product). Areas were normalized for instrumental variation by dividing by the BSA peak area (1209.23 to 1209.2 m/z transition) measured in the same well.

Series [3] concerns the target T1, PPM1D1–420. The experiment in a line: Isothermal titration calorimetry (ITC). It is filed as binding. The note with it: PPM1D1–420; 25 °C. How it is done:
Assessments of the analog of GSK2830371 (analog 1d) binding to wild-type and mutant proteins were conducted using an Auto-iTC200 microcalorimeter (Malvern) (see section on synthesis of analog 1d below). The protein was dialyzed extensively into 25 mM HEPES (pH 7.4), 150 mM NaCl, 10 mM MgCl2 and 1 mM TCEP. The dialyzed protein was used to prepare fresh working solutions of protein (20 µM) and analog 1d (200 µM) in 2% DMSO (v/v) in the same buffer. Titrations were performed at 25 °C and consisted of a single initial injection of 0.4 µL, followed by 19 injections of 2 µL of compound into a sample cell containing wild-type or mutant PPM1D, with an interval of 150 s between successive injections. The reference power and stirring speed were set at […] and 1000 RPM, respectively. Heat of dilution and mixing were obtained from injections of analog 1d into ITC buffer lacking protein and subtracted from the integrated data before curve fitting. Thermodynamic data were analyzed using Origin 7.0 software and fitted by non-linear regression to the model for a single binding site.
Background: Isothermal titration calorimetry measures the heat released or taken up as one component is titrated into another.

Broadly, the Kd is a measure of binding affinity in units of concentration. In general, koff refers to the rate constant with which the complex falls apart. Broadly, the kon is the rate constant with which the complex forms. The term solubility denotes the concentration that dissolves in the medium under given conditions. Lower therefore signals a poorly soluble substance. The IC50 is the concentration that gives 50% inhibition.

For `NCCCCNC(=O)[C@H](CC1CCCCC1)NC(=O)c1ccc(CNc2cc(Cl)ccn2)s1` [analog 1d], the Kd at PPM1D1–420 [1] (PPM1D1–420, single-cycle kinetics for GSK2830371, read-out: Kd (SPR)) is 0.0027 µM; at PPM1D1–420 [3] it was 0.0109 µM and 0.01 µM. For the same molecule, the koff on PPM1D1–420 [1] (SPR kinetics fit, Sup Fig 3B, read-out: koff) was found to be 0.0015 s⁻¹. Further, at PPM1D1–420 [1] (SPR kinetics fit, Sup Fig 3B, read-out: kon), the kon stood at 578000 M⁻¹ s⁻¹. Also, on PPM1D1–420 [1] (SPR steady state, [1d] (nM) 4.94E-09), the “Steady state curve response” value came to 2.128. This molecule displayed a solubility in the series “Solubility” of over 100 µM. At PPM1D1–420 [2], this molecule had an IC50 of 0.0224 µM.
